Experimental findings from a melting point compilation (Tetko et al.; mined from patent text by program, amines drawn as free bases though some values may be those of a salt) are described below.

In general, melting point refers to the temperature, or range, at which the solid turns liquid.

Residues, ends and D or L forms follow the SMILES beside them. *: point of attachment. Boc = CC(C)(C)OC(=O)*; Bn = c1ccc(C*)cc1

`C1=NCC2Cc3ccccc3Cc3cccc1c32` (configuration not stated) gave a melting point of 91 to 93 °C. The figure for `CC[C@@H](CN1CCCc2cc(Br)ccc21)NS(=O)(=O)c1c(C)cc(C)cc1C` is 135 °C; for `O=C(c1ccccc1)c1cc(Cl)ccc1-n1cnnc1` it is 182 to 184 °C; for `C[C@@H](Cn1ncc2ccc3oc(C(=O)OCc4ccccc4)cc3c21)NC(=O)OCc1ccccc1` it is 140 to 141 °C. The figure for `C[C@@H](C(N)=O)c1ccc(NS(=O)(=O)Cc2ccccc2)cc1` is 68 to 70 °C; for `COc1cc(C(C)C)c2c(c1)S(=O)(=O)N(COc1cc(-c3ccccc3)nn1-c1ccccc1)C2=O` it is 62 to 76 °C; for `CCCCCCNC(=O)C#CBr` it is 64 to 64.3 °C.

Consider `COc1cccc(C=N[C@H](C)c2ccc([N+](=O)[O-])cc2)c1O`, for which the melting point was in the range of 88 to 90 °C.

In the case of `COc1ccc2c(c1)c(-c1cc3cc(-c4ccccc4)cnc3[nH]1)cn2C`, the melting point was 240 to 242 °C. With `COc1nc2ccccc2cc1/C=C/c1cc(CN2CCN(S(C)(=O)=O)CC2)ccc1[N+](=O)[O-]`, the melting point was in the range of 156 to 157 °C.

`Nc1c(Cl)cc(C(=O)OCC2CCN(CCCn3nc(Cl)ccc3=O)CC2)c2c1CCO2`: the melting point is 137 °C. In the case of `CC(C)[C@H](N)C(=O)NC(Cc1ccccc1)C(O)C(Cc1ccccc1)NC(=O)[C@@H](NC(=O)OCc1ccccc1)C(C)C` (some centres not stated), the melting point lay in the range of 126 to 127 °C. The figure for `O=C(NCc1cccnc1)C1CCCCC1` is 90 °C; for `Cc1cc(I)ccc1Nc1c(C(=O)O)cc(F)c(F)c1F` it is 206 to 210 °C. To `Cc1nc2c3c(c(C(=O)N(C)C)cc2n1C)CC[C@@H](c1ccccc1)O3` belongs 227 to 228 °C; to `COC(=O)C(Cl)=Cc1cc(-n2c(OC)nc(C(F)(F)F)cc2=O)ccc1Cl`, 151 to 152 °C; to `CC(C)C(OC(=O)NC(C)(Cc1ccccc1)C(=O)NC(Cc1ccc(O)cc1)C(=O)NCCCCCCCO)c1ccccc1` (configuration not stated), 70 to 76 °C. As for `Cc1c(C(=O)CBr)ccn1S(=O)(=O)c1ccccc1`, the melting point was 108 to 110 °C. `CCOC(=O)c1cn(C2CC2)c2c(Cl)c(F)ccc2c1=O` displayed a melting point of 149 to 153 °C.

`Cc1cccc(C(=O)NC(Nc2c(Nc3cccnc3Cl)c(=O)c2=O)C(C)(C)C)c1` (configuration not stated) gave a melting point of 238 to 239 °C. In turn, `CS(=O)(=O)c1cccc(Cc2cc3cccc(-c4cccc(C(=O)NCC(N)=O)c4)c3s2)c1` returned a melting point of 189 to 193 °C. For `NC(=O)CNC(=O)COc1ccccc1`, the melting point was 138 to 140 °C.

As for `COC(=O)C(C)=Cc1ccc(O)cc1`, the melting point fell in the range of 103 to 104 °C. `Cc1ccc(Oc2ccc([N+](=O)[O-])cc2)c(O)c1` had a melting point of 95 to 97 °C.

As for `O=C(O)Cc1cccc2c(=O)cc(-c3cc(F)cc(F)c3)oc12`, the melting point was in the range of 221 to 223 °C. The figure for `COc1ccc(C)cc1NC(=O)Nc1ccc(N2CCN(C(=O)Nc3ccccc3)CC2)cc1` is 221 °C; for `Cc1c(S(C)=O)c(C#N)nn1-c1c(Cl)cc(C(F)(F)F)cc1Cl` (configuration not stated) it is 109 to 115 °C; for `CCSNc1c(C#N)cnn1-c1c(Cl)cc(C(F)(F)F)cc1Cl` it is 157 to 158 °C. The figure for `CCCC1=C(C#N)C(c2ccccc2Cl)c2c(n[nH]c2CC(OC)OC)N1` (configuration not stated) is 180 °C; for `COc1cccc(NC(=O)NCc2ccc3c(c2)C(=O)N(C2CCC(=O)NC2=O)C3=O)c1` (configuration not stated) it is 323 to 325 °C. To `Cc1nnc(-c2ccc3occ(-c4ccc(S(=O)(=O)N(C)C)cc4)c3c2)o1` belongs 246 to 247 °C; to `CCCOc1ccc(S(=O)(=O)N2CCN(CCO)CC2)cc1C(=O)OC`, 88 to 89 °C; to `OC(CNCCCc1ccc(OCCOCCc2ccccc2)cc1)COc1ccccc1` (racemic), 76 to 78 °C. With `Clc1ccc2c(C3=CCN(CCC4CCc5ccccc54)CC3)c[nH]c2c1` (configuration not stated), the melting point fell in the range of 181 to 183 °C.

The molecule `NCCCCC(OP(=O)(O)CCCCc1ccc(F)cc1)C(=O)N1CCCC1C(=O)O` (configuration not stated) gave a melting point of 178 to 185 °C. To `CCOC(=O)c1cn(CC)c2cc(-c3ccno3)ccc2c1=O` belongs 243 to 245 °C; to `CC(=NO)C1=CCCN(Cc2ccccc2)C1`, 103 to 105 °C; to `O=C(O)Cc1cccc2nnsc12`, 148 to 150 °C.

Turning to `CC(C)OP(=O)(CCCCC1(C(=O)NCC(F)(F)F)c2ccccc2-c2ccccc21)OC(C)C`, the melting point lay in the range of 91 to 94 °C. On to `CC(=O)c1c(CO)[nH]c(-c2ccncc2)c1C`, for which the melting point fell in the range of 163 to 165 °C. Consider `CCN(CC)CCOc1ccc(Nc2ncc3c(n2)N(C)C(=O)N(C)C3)cc1`, for which the melting point is 186 °C. To `COc1cc(C=O)ccc1OCc1nc(-c2ccccc2)cn1C` belongs 128 to 129 °C; to `CCCN1C(=O)/C(=C/c2c[nH]c3ncccc23)N=C1C`, 206 °C; to `O=[N+]([O-])c1ccc(S(=O)(=O)N2CC3CN(Cc4ccccc4)CC(C2)O3)cc1`, 98.4 to 101 °C.

As to `Cc1cc(C)nc(NC(=O)NS(=O)(=O)c2csnc2Cl)n1`, the melting point fell in the range of 136 to 140 °C. Molecule `CCC(C(=O)O)c1ccc(N[C@@H](CCC(N)=O)C(=O)O)cc1` (some centres not stated) showed a melting point of 166 to 167 °C.

`COCC(=O)N[C@H]1CC[C@H](CCN2CCC(c3cccc4c3CCO4)CC2)CC1` came in with a melting point of 156 °C. To `CN1Cc2c(-c3nnc(CCl)o3)ncn2-c2cccc(Cl)c2C1=O` belongs 201 to 203 °C; to `COc1ccc2cnc3c(c2c1)NC(=O)CC3`, 254 to 256 °C; to `N#Cc1cc([N+](=O)[O-])[nH]c1-c1ccc(Cl)cc1`, 201 to 206 °C.

`C=CCCCC(C#N)(C#N)Cc1ccc(C#N)cc1` displayed a melting point of 91.5 °C. To `COc1cc(NC(C)=O)c(Cl)cc1C(=O)NC1CC2CCCCN2C1` (configuration not stated) belongs 151 to 153 °C. To `CC(C)CCC1C(=O)N(CCl)S(=O)(=O)N1C` (configuration not stated) belongs 59 to 60 °C; to `Cc1oc(-c2ccccc2)nc1CCC(=O)c1ccc(CCCC2OC(=O)NC2=O)cc1` (configuration not stated), 184 to 185 °C. In the case of `CN(Cc1ccccc1)C(=O)Cn1c(-c2ccc(Cl)cc2)nc2cccnc21`, the melting point is 87 to 89 °C. To `O=C(O)C=C1c2ccccc2CCc2cc(Cl)ccc21` belongs 155 to 175 °C; to `CC(C)CC(=O)Nc1ccc2oc3c(c2c1)CCCCCC3`, 154 to 155 °C. `O=C1CCCCCCCCCCCCCCCCCCCCCC(O)C(=O)OCCCC1` (configuration not stated) had a melting point of 67 to 68 °C. The figure for `COC(=O)C(Cc1ccc(OCc2ccccc2)cc1)NC(=O)C(COCc1ccccc1)NC(=O)C(Cc1c[nH]c2ccccc12)NC(=O)OC(C)(C)C` (stereo not drawn) (Boc-Trp-Ser(Bn)-Tyr(Bn)-OMe; configuration not given here) is 130 to 131 °C; for `N[C@@H]1Cc2c(Br)ccc3c2[C@@H](C1)CN3C(=O)c1ccccc1` it is 169 to 173 °C. Molecule `C#CCOc1cccc(-c2nc3ncccc3[nH]2)c1OC` returned a melting point of 262 °C. The figure for `CC(=O)N1CCN(c2ccc(Nc3nccc(-c4sc(Nc5ccccc5)nc4C)n3)cc2)CC1` is 245 to 246 °C.
